Experimental data reported in patent US4684630A, “Method of parenterally delivering drugs and related compositions” (priority 1985, dated 1987).
In brackets after ≈: the same amount, converted by molar mass. Read-outs that look alike come from different tables or passages of the source. Each block holds one compound with its values, some of them ahead of it.

Columns and labels:
[1] = Precipitation on further dilution of the organic-aqueous solutions with sterile intravenous solutions; format: physicochemical; conditions: solutions of Example 3 diluted with 5% dextrose-0.45% saline or 0.9% saline; 250 ml/hr vehicle, 6 ml/hr drug solution, 12 hours
Protocol: The organic-aqueous solutions of Example 3 are further diluted with two standard sterile intravenous solutions: a 5% dextrose-0.45% saline solution and a 0.9% saline solution. The aqueous delivery vehicles were delivered at a rate of 250 ml/hr. The concentrated drug solutions (approx. 10 mg/ml) were introduced through a side arm tubing located several inches above the injection point for 12 hours at the rate of 6 ml/hr. measured by a calibrated infusion pump. […] At this rate, the effective dosage concentration per unit volume of the final organic-aqueous solution was approximately 1 mg/ml. The final diluted organic-aqueous solutions were filtered using Wattman filter paper.

[2] = format: physicochemical; conditions: for time for which ara-AC has proven stable: neat, higher temperatures (e.g., 50°-60° C.)
Protocol: (§1) Two neat, anhydrous solutions of ara-AC dissolved in DMSO and DMA, respectively, were prepared. […] Ara-AC has a solubility of approximately 20 mg/ml in water. The effective dose for ara-AC is 700 mg. […] At higher temperatures (e.g., 50°-60° C.), the ara-AC has proven stable for at least 3 weeks. Thus, the solutions of ara-AC in DMSO and DMA appear to be stable enough for commercial production, handling, and storage. By contrast, a solution of ara-AC in water would degrade 10% in 1.8 hours at 25° C.

[3] = physchem; format: physicochemical
Protocol: as §1

[4] = Degradation kinetics of ara-AC in aqueous and mixed organic-aqueous solvent systems at 25° C. (reverse phase HPLC)
[5] = Buffer (phosphate 0.01 M, pH 7.0, μ = 0.1 with NaCl), ara-AC 0.25 mg/ml, measured pH 7.0, 25° C.
[6] = Distilled H2O, ara-AC 0.25 mg/ml, measured pH 6.8, 25° C.

Structure (SMILES): Nc1ncn([C@@H]2O[C@H](CO)[C@@H](O)[C@H]2O)c(=O)n1 [5-AC, 5-azacytidine]
- precipitation or other undesirable effects [1]: No precipitation or other undesirable effects

- degradation during 5 months [2]: no observable degradation
- time for which ara-AC has proven stable ([2]; anhydrous DMA solution): at least 3 weeks
- time for which ara-AC has proven stable ([2]; anhydrous DMSO solution): at least 3 weeks
- solubility ([3]; dma, organic solvent or mixture): 170 mg/mL (≈ 696 mM)
- solubility ([3]; dmso, organic solvent or mixture): 370 mg/mL (≈ 1520 mM)
- solubility ([3]; water): ~20 mg/mL (≈ 81.9 mM)
- t90 ([4]; 5% DMA in Buffer (phosphate 0.01 M, pH 6.8), ara-AC 5.0 mg/ml, apparent pH 7.0, 25° C.): 1.9 h
- t90 ([4]; 5% DMSO in Buffer (phosphate 0.01 M, pH 6.8), ara-AC 5.0 mg/ml, apparent pH 7.0, 25° C.): 2.0 h
- t90 ([4]; 10% DMA in Buffer (phosphate 0.01 M, pH 6.8), ara-AC 5.0 mg/ml, apparent pH 7.1, 25° C.): 2.2 h
- t90 ([4]; 10% DMSO in Buffer, ara-AC 5.0 mg/ml, apparent pH 7.1, 25° C.): 2.5 h
- t90 ([4]; 25% DMA in Buffer (phosphate 0.01 M, pH 6.8), ara-AC 5.0 mg/ml, apparent pH 7.4, 25° C.): 2.7 h
- t90 ([4]; 25% DMSO in Buffer, ara-AC 5.0 mg/ml, apparent pH 7.4, 25° C.): 2.8 h
- t90 ([4]; 50% DMA in Buffer (phosphate 0.01 M, pH 6.8), ara-AC 5.0 mg/ml, apparent pH 8.1, 25° C.): 4.5 h
- t90 ([4]; 55% DMA in Buffer (phosphate 0.01 M, pH 6.8), ara-AC 5.0 mg/ml, apparent pH 8.3, 25° C.): 6.0 h
- t90 ([4]; 60% DMA in Buffer (phosphate 0.03 M, pH 6.0, μ = 0.3 M with NaCl), ara-AC 5.0 mg/ml, apparent pH 7.4, 25° C.): 15.0 h
- t90 ([4]; 60% DMSO in Buffer (phosphate 0.03 M, pH 6.0, μ = 0.3 M with NaCl), ara-AC 5.0 mg/ml, apparent pH 7.8, 25° C.): 16.0 h
- t90 ([4]; 65 wt. % DMA-35 wt. % water solution): 16.0 h
- t90 ([4]; 70% DMSO in H2O, ara-AC 5.0 mg/ml, apparent pH 8.0, 25° C.): 28.0 h
- t90 ([4]; 70 wt % DMSO-30 wt. % water solution): 28.0 h
- Kobs (observed degradation rate constant) [4, 5]: 1.55 × 10^-2 hr.^-1
- t90 [4, 5]: 1.7 h
- Kobs (observed degradation rate constant) [4, 6]: 1.34 × 10^-2 hr.^-1
- t90 [4, 6]: 1.8 h
- t90 (10% decomposition in water) ([4]; water, 25° C.): 1.8 h
Structure (SMILES): Nc1ncn([C@@H]2O[C@H](CO)[C@@H](O)[C@@H]2O)c(=O)n1 [ara-AC, 5-azacytosine arabinoside]
- precipitation or other undesirable effects [1]: No precipitation or other undesirable effects
